Source: the supplement of paper PMC10331698
± gives the standard deviation of the averaged measurements.

Tests used:
Assay in all cases: level (log10 ratio to DMSO vehicle control); higher = higher biomarker level / cell amount than vehicle control
Settings in all cases: in DMSO
[1] = compound: O=C(O)C(F)(F)C(F)(F)C(F)(F)C(F)(F)C(F)(F)C(F)(F)C(F)(F)C(F)(F)C(F)(F)C(F)(F)C(F)(F)C(F)(F)F [Perfluorotridecanoic acid]
Description: (§1)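 BioMAP Diversity Plus panel of 12 human primary cell co-culture systems (3C, 4H, LPS, SAg, BT, BF4T, BE3C, CASM3C, HDF3CGF, KF3CT, MyoF, Mphg). Compounds were added 1 h before stimulation and left for 24 h (MyoF 48 h; BT 72 h for soluble read-outs or 6 d for IgG). Biomarkers were read by ELISA, cytotoxicity by SRB, PBMC viability and proliferation by Alamar Blue. Each well value was divided by the mean of 8 DMSO control wells on the same plate and log10 transformed; duplicate blinded samples were tested at 4 concentrations.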

[2] = compound: O=C(O)C(F)(F)C(F)(F)C(F)(F)C(=O)O [Hexafluoroglutaric acid]
Description: as §1

[3] = compound: NC(=O)C(F)(F)C(F)(F)C(F)(F)C(F)(F)C(F)(F)C(F)(F)C(F)(F)F [Perfluorooctanamide]
Description: as §1

[4] = compound: O=C(O)C(F)(F)C(F)(F)C(F)(F)C(F)(F)C(F)(F)C(F)(F)C(F)(F)C(F)(F)C(F)(F)C(F)(F)C(F)(F)C(F)(F)C(F)(F)F [Perfluorotetradecanoic acid]
Description: as §1

[5] = compound: Cn1cnc([N+](=O)[O-])c1Sc1ncnc2[nH]cnc12 [Azathioprine]
Description: as §1

[6] = compound: OCC(F)(F)C(F)(F)C(F)(F)F [1H,1H-Heptafluorobutanol]
Description: as §1

| Test System | level (log10) ([1]; 1500 nM) | level (log10) ([1]; 4400 nM) | level (log10) ([1]; 13000 nM) | level (log10) ([1]; 40000 nM) | level (log10) ([2]; 6700 nM) | level (log10) ([2]; 20000 nM) | level (log10) ([2]; 60000 nM) | level (log10) ([3]; 6700 nM) | level (log10) ([3]; 20000 nM) | level (log10) ([3]; 60000 nM) | level (log10) ([4]; 6700 nM) | level (log10) ([4]; 20000 nM) | level (log10) ([5]; 1400 nM) | level (log10) ([5]; 4200 nM) | level (log10) ([5]; 13000 nM) | level (log10) ([5]; 38000 nM) | level (log10) ([6]; 6700 nM) | level (log10) ([6]; 20000 nM) | level (log10) ([6]; 60000 nM) |
| --- | --- | --- | --- | --- | --- | --- | --- | --- | --- | --- | --- | --- | --- | --- | --- | --- | --- | --- | --- |
| 3C:CD87/uPAR | 0.065 ± 0.025 | 0.0355 ± 0.039 | 0.066 ± 0.011 | 0.059 ± 0.016 | -0.0075 ± 0.018 | -0.0105 ± 0.028 | 0.0025 ± 0.013 | 0.0075 ± 0.011 | 0.004 ± 0.0099 | 0.0045 ± 0.0092 | 0.032 ± 0.081 | 0.0405 ± 0.073 | 0.0255 ± 0.037 | 0.016 ± 0.033 | 0.0565 ± 0.018 | 0.044 ± 0.0071 | -0.011 ± 0.025 | 0.0085 ± 0.023 | 0.026 ± 0.021 |
| 3C:CXCL8/IL-8 | 0.017 ± 0.025 | -0.01 ± 0.017 | -0.144 ± 0.19 | -0.715 ± 0.14 | -0.033 ± 0.0057 | -0.0185 ± 0.018 | 0.0015 ± 0.044 | -0.013 ± 0.0042 | 0.002 ± 0.031 | 0.047 ± 0.021 | -0.0045 ± 0.032 | 0.0485 ± 0.076 | 0.016 ± 0.054 | -0.01 ± 0.011 | -0.026 ± 0.0085 | -0.0455 ± 0.018 | 0.0005 ± 0.067 | -0.0055 ± 0.079 | 0.0185 ± 0.093 |
| 3C:CXCL9/MIG | 0.0055 ± 0.0035 | 0.0005 ± 0.00071 | 0.003 ± 0.0085 | 0.0035 ± 0.00071 | -0.014 ± 0.0085 | -0.005 ± 0.0042 | -0.0075 ± 0.0035 | 0.01 ± 0.0042 | 0.008 ± 0.014 | 0.031 ± 0.0014 | -0.0045 ± 0.0035 | 0.0015 ± 0.0021 | 0.003 | 0.003 ± 0.0014 | 0.0025 ± 0.005 | 0.0125 ± 0.0035 | 0.001 ± 0.021 | 0.002 ± 0.014 | 0 ± 0.017 |
| 3C:HLA-DR | -0.011 ± 0.0028 | -0.0135 ± 0.011 | -0.021 ± 0.02 | -0.0095 ± 0.011 | 0.0225 ± 0.035 | 0.0315 ± 0.047 | 0.038 ± 0.042 | 0.001 ± 0.034 | 0.002 ± 0.017 | 0.0095 ± 0.019 | -0.028 ± 0.03 | 0.0025 ± 0.037 | 0.006 ± 0.013 | -0.001 ± 0.021 | 0.005 ± 0.048 | 0.005 ± 0.042 | -0.0025 ± 0.0021 | 0.0035 ± 0.012 | 0.005 ± 0.014 |
| 3C:Proliferation | -0.056 ± 0.048 | -0.025 ± 0.0085 | -0.348 ± 0.38 | -0.811 ± 0.1 | -0.0055 ± 0.0064 | -0.009 ± 0.068 | -0.0155 ± 0.054 | 0.0165 ± 0.0021 | 0 ± 0.014 | -0.081 ± 0.0085 | -0.306 ± 0.046 | -0.329 ± 0.15 | -0.04 ± 0.057 | -0.038 ± 0.081 | -0.048 ± 0.018 | -0.179 ± 0.031 | 0.0075 ± 0.005 | 0.02 ± 0.025 | -0.0595 ± 0.005 |
| 3C:SRB | -0.017 ± 0.0085 | -0.0125 ± 0.0035 | -0.012 ± 0.016 | -0.0125 ± 0.028 | -0.004 ± 0.0014 | -0.005 ± 0.014 | 0.0075 ± 0.028 | 0.007 ± 0.013 | 0.0095 ± 0.005 | -0.015 ± 0.0099 | -0.015 ± 0.0028 | -0.0165 ± 0.012 | -0.006 ± 0.0014 | -0.016 ± 0.0071 | -0.0275 ± 0.005 | -0.0955 ± 0.019 | -0.0095 ± 0.012 | 0.001 ± 0.0085 | -0.001 ± 0.0071 |
| 4H:CCL2/MCP-1 | 0.0035 ± 0.037 | -0.0025 ± 0.026 | -0.0095 ± 0.0092 | -0.033 ± 0.014 | -0.0095 ± 0.032 | -0.0135 ± 0.011 | 0.0245 ± 0.047 | -0.016 ± 0.0028 | -0.005 ± 0.0014 | -0.008 | -0.031 ± 0.0057 | 0.0115 ± 0.019 | 0.018 ± 0.096 | 0.0255 ± 0.04 | -0.035 ± 0.1 | 0.0055 ± 0.042 | 0.0015 ± 0.0035 | -0.0025 ± 0.00071 | 0.0125 ± 0.026 |
| 4H:CCL26/Eotaxin-3 | -0.0145 ± 0.018 | -0.0395 ± 0.033 | -0.056 ± 0.0071 | -0.0655 ± 0.033 | 0.0155 ± 0.035 | 0.0155 ± 0.013 | 0.0235 ± 0.0078 | 0.033 ± 0.055 | 0.021 ± 0.031 | 0.0275 ± 0.04 | -0.0595 ± 0.019 | -0.0575 ± 0.047 | 0.016 ± 0.0099 | -0.009 ± 0.021 | -0.003 ± 0.011 | -0.0255 ± 0.035 | 0.017 ± 0.03 | 0.01 ± 0.014 | 0.0255 ± 0.021 |
| 4H:CD62P/P-selectin | -0.0285 ± 0.016 | -0.017 ± 0.0085 | 0.0125 ± 0.013 | 0.021 ± 0.011 | 0.0065 ± 0.0035 | -0.035 ± 0.0014 | -0.05 ± 0.064 | -0.0005 ± 0.0078 | -0.0225 ± 0.022 | -0.02 ± 0.024 | 0.0015 ± 0.011 | 0.0055 ± 0.021 | -0.019 ± 0.062 | -0.007 ± 0.031 | -0.0075 ± 0.036 | -0.108 ± 0.011 | 0.0195 ± 0.064 | -0.007 ± 0.14 | 0.044 ± 0.15 |
| 4H:CD87/uPAR | 0.0035 ± 0.028 | -0.03 ± 0.017 | -0.0175 ± 0.015 | -0.0515 ± 0.074 | -0.046 ± 0.023 | -0.027 ± 0.057 | -0.005 ± 0.031 | -0.0055 ± 0.037 | 0.0105 ± 0.021 | -0.0285 ± 0.012 | -0.0495 ± 0.097 | -0.0345 ± 0.14 | 0.0045 ± 0.018 | -0.03 ± 0.035 | -0.0015 ± 0.00071 | 0.0315 ± 0.00071 | -0.0055 ± 0.035 | 0.004 ± 0.071 | 0.032 ± 0.09 |
| 4H:CD106/VCAM-1 | -0.028 ± 0.0071 | -0.065 ± 0.04 | -0.107 ± 0.0064 | -0.089 ± 0.018 | -0.005 ± 0.014 | -0.005 ± 0.03 | -0.0045 ± 0.012 | -0.023 | -0.0235 ± 0.0035 | -0.01 ± 0.03 | -0.0805 ± 0.037 | -0.0775 ± 0.0078 | -0.024 ± 0.017 | -0.0205 ± 0.025 | -0.0655 ± 0.015 | -0.132 ± 0.044 | 0 ± 0.03 | 0.0325 ± 0.023 | 0.027 ± 0.048 |
| 4H:SRB | -0.0115 ± 0.0064 | -0.022 ± 0.0014 | -0.054 ± 0.042 | -0.443 ± 0.037 | -0.0005 ± 0.0092 | 0.003 ± 0.016 | 0.011 ± 0.034 | -0.0005 ± 0.005 | -0.008 ± 0.0057 | 0.0085 ± 0.028 | -0.014 ± 0.028 | -0.0155 ± 0.063 | -0.0135 ± 0.0092 | -0.0075 ± 0.005 | -0.015 ± 0.0085 | -0.0485 ± 0.019 | -0.005 ± 0.0071 | -0.0005 ± 0.013 | 0.0065 ± 0.005 |
| 4H:VEGFR2 | 0.0375 ± 0.0078 | -0.0205 ± 0.037 | -0.0125 ± 0.1 | -0.257 ± 0.1 | 0.0005 ± 0.016 | -0.04 ± 0.0099 | -0.0095 ± 0.0078 | -0.025 ± 0.0099 | -0.0405 ± 0.037 | -0.021 ± 0.025 | 0.075 ± 0.11 | 0.084 ± 0.09 | -0.0045 ± 0.012 | 0.0015 ± 0.047 | -0.0195 ± 0.0078 | 0.0155 ± 0.06 | 0.0085 ± 0.026 | -0.0015 ± 0.0035 | 0.003 ± 0.035 |
